Measured values as given in patent publication US20240172748A1, “A SYNERGISTIC PLANT GROWTH STIMULANT COMPOSITION COMPRISING MELATONIN AND NITROGENOUS COMPOUNDS FOR IMPROVING PLANT GROWTH AND DECREASING BIOTIC-ABIOTIC STRESSES ON PLANTS” (FERTIS INDIA PVT. LTD., priority 2021, published 2024).

Columns and labels:
Assay type in all cases: in vivo
Paddy [1] = test: Percentage of protein in grain, field trial on Paddy; details: area 10-meter square, 1 gm/liter foliar application
Source text: Example 11: Percentage of Protein in Grain
(§1) Field trail results on Paddy—Area 10-meter square 1 gm/liter Foliar Application

Paddy [2] = test: Total protein content in percentage in grain, field trial on Paddy; details: area 10-meter square, lgm/liter foliar application
Source text: Example 12: Methionin with Plant Growth Hormone—Total Protein Content in Percentage in Grain
Field trail results on Paddy—Area 10-meter square lgm/liter Foliar Application

Paddy [3] = test: Micronutrient analysis in grain, field trial on Paddy; details: area 10-meter square, 1 gm/liter foliar application
Source text: Example 9: Micronutrient Analysis in Grain
as §1

| Structure (SMILES) | % of Protein (Paddy [1]) [%] | Total Protein content in % (Paddy [2]) [%] | further results |
| --- | --- | --- | --- |
| CNC(=O)NC [Dimethyl urea] | 0.0081 | – | – |
| O=C(Nc1ccccc1)Nc1ccccc1 [Diphenyl urea] | 0.0089 | – | – |
| C=C1C[C@]23C[C@@]1(O)CC[C@H]2[C@@]12C=C[C@H](O)[C@@](C)(C(=O)O1)[C@H]2[C@@H]3C(=O)O [Gibberellic acid] | – | 0.084 | – |
| COc1ccc2[nH]cc(CCNC(C)=O)c2c1 [Melatonin] | – | 0.076 | B (Boron) (Paddy [3]): 40.30 ppm; Ca (Calcium) (Paddy [3]): 375.00 ppm; Fe (Iron) (Paddy [3]): 300.00 ppm; Mg (Magnesium) (Paddy [3]): 609.00 ppm; Mn (Manganese) (Paddy [3]): 45.00 ppm; Zn (Zinc) (Paddy [3]): 36.50 ppm |
| O=CNC(=O)NC=O [NN DFU, N,N′-Diformyl Urea] | 0.0117 | – | – |
| NC(N)=O [Urea] | 0.0063 | – | – |
